Several values for one entry are separate records, joined by “and”; a condition that tells them apart may be missing. Equal entries are not always repeated. Inconclusive results and toxic doses are left out. The calls were made as follows: active = survival T/C of 150% or more; inactive = T/C below 125% in these data.
Tested on: P388 leukemia ip, CD2F1 mice, survival T/C
Assay: NCI In Vivo Anticancer Drug Screen. Data for tumor model P388 Leukemia (intraperitoneal) in CD2F1 (CDF1) mice
Conditions: endpoint: median survival time, higher = longer survival
How it was run: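 Mice carrying the transplanted tumor received test compound or vehicle. Survival was recorded in each group, and the value is the treated-group measurement divided by that of the vehicle-treated control group.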

[1] = dose: 6.25 mg/kg/injection, schedule: Q01DX009 (ip), vehicle: saline with Tween-80
[2] = dose: 6.25 mg/kg/injection, schedule: Q01DX009 (ip), vehicle: saline
[3] = dose: 12.5 mg/kg/injection, schedule: Q01DX009 (ip), vehicle: saline
[4] = dose: 25.0 mg/kg/injection, schedule: Q01DX009 (ip), vehicle: saline with Tween-80
[5] = dose: 25.0 mg/kg/injection, schedule: Q01DX009 (ip), vehicle: saline
[6] = dose: 50.0 mg/kg/injection, schedule: Q01DX009 (ip), vehicle: saline with Tween-80
[7] = dose: 50.0 mg/kg/injection, schedule: Q01DX009 (ip), vehicle: saline
[8] = dose: 60.0 mg/kg/injection, schedule: Q01DX005 (ip), vehicle: saline with Tween-80
[9] = dose: 120.0 mg/kg/injection, schedule: Q01DX005 (ip), vehicle: saline with Tween-80
[10] = dose: 240.0 mg/kg/injection, schedule: Q01DX005 (ip), vehicle: saline with Tween-80
[11] = dose: 100.0 mg/kg/injection, schedule: Q01DX001 (ip), vehicle: Klucel (hydroxypropylcellulose) (HPC)
[12] = dose: 100.0 mg/kg/injection, schedule: Q01DX009 (ip), vehicle: saline with Tween-80
[13] = dose: 100.0 mg/kg/injection, schedule: Q04DX003 (ip), vehicle: saline with Tween-80
[14] = dose: 200.0 mg/kg/injection, schedule: Q01DX009 (ip), vehicle: saline with Tween-80
[15] = dose: 200.0 mg/kg/injection, schedule: Q04DX003 (ip), vehicle: saline with Tween-80
[16] = dose: 100.0 mg/kg/injection, schedule: Q04DX002 (ip), vehicle: saline with Tween-80
[17] = dose: 200.0 mg/kg/injection, schedule: Q04DX002 (ip), vehicle: saline with Tween-80
[18] = dose: 50.0 mg/kg/injection, schedule: Q01DX005 (ip), vehicle: Klucel (hydroxypropylcellulose) (HPC)
[19] = dose: 100.0 mg/kg/injection, schedule: Q01DX005 (ip), vehicle: Klucel (hydroxypropylcellulose) (HPC)

Measured: T/C

C[N+](C)=c1ccc2nc3ccc(N)cc3sc-2c1
inactive: dose: 3.13 mg/kg/injection, schedule: Q01DX009 (ip), vehicle: saline 106 % of control | [1] 87 % of control | [2] 94 % of control | [3] 95 % of control | [4] 102 % of control and 103 % of control | [5] 107 % of control | [6] 95 % of control | [7] 104 % of control

CCN(CC)CCN1C(=O)NC2(CCCCC2)C1=O
inactive: [8] 101 % of control | [9] 100 % of control | [10] 99 % of control

CCOC(=O)C(Cc1ccc(Oc2nc3ccccc3o2)cc1)NC(C)=O (centres undefined)
inactive: dose: 25.0 mg/kg/injection, schedule: Q01DX001 (ip), vehicle: Klucel (hydroxypropylcellulose) (HPC) 110 % of control | dose: 50.0 mg/kg/injection, schedule: Q01DX001 (ip), vehicle: Klucel (hydroxypropylcellulose) (HPC) 112 % of control | [11] 109 % of control

COc1ccc(Br)cc1/C=N\NS(=O)(=O)c1ccc(C)cc1
inactive: [12] 104 % of control | [13] 116 % of control | [14] 109 % of control | [15] 100 % of control | dose: 400.0 mg/kg/injection, schedule: Q01DX009 (ip), vehicle: saline with Tween-80 122 % of control | dose: 400.0 mg/kg/injection, schedule: Q04DX003 (ip), vehicle: saline with Tween-80 108 % of control

COc1cc(C(=O)O)c2c(c1C)OC(=O)c1c(C)cc(O)c(C=O)c1O2
inactive: [2] 119 % of control | [3] 119 % of control | [5] 100 % of control | dose: 26.0 mg/kg/injection, schedule: Q04DX003 (ip), vehicle: saline 116 % of control | dose: 40.0 mg/kg/injection, schedule: Q04DX003 (ip), vehicle: saline 112 % of control | dose: 60.0 mg/kg/injection, schedule: Q04DX003 (ip), vehicle: saline 119 % of control

ClCSc1nc2ccccc2o1
inactive: dose: 50.0 mg/kg/injection, schedule: Q04DX002 (ip), vehicle: saline with Tween-80 102 % of control | [16] 102 % of control | [17] 107 % of control

COc1cc2c(c3c1OCO3)-c1ccc(OC)c(=O)cc1C(NC(C)=O)CC2 (centres undefined)
inactive: dose: 1.25 mg/kg/injection, schedule: Q01DX009 (ip), vehicle: Klucel (hydroxypropylcellulose) (HPC) 108 % of control | dose: 2.5 mg/kg/injection, schedule: Q01DX009 (ip), vehicle: Klucel (hydroxypropylcellulose) (HPC) 104 % of control | dose: 5.0 mg/kg/injection, schedule: Q01DX009 (ip), vehicle: Klucel (hydroxypropylcellulose) (HPC) 111 % of control | dose: 10.0 mg/kg/injection, schedule: Q01DX009 (ip), vehicle: Klucel (hydroxypropylcellulose) (HPC) 116 % of control | dose: 20.0 mg/kg/injection, schedule: Q01DX009 (ip), vehicle: Klucel (hydroxypropylcellulose) (HPC) 118 % of control

O=C(O)C(OC(=O)C(F)(F)F)C(F)(F)C(F)(F)C(F)(F)F (centres undefined)
inactive: [8] 95 % of control | [9] 89 % of control | [10] 99 % of control

OCCOCCCl
inactive: dose: 100.0 mg/kg/injection, schedule: Q01DX009 (ip), vehicle: suspension in saline 96 % of control | dose: 200.0 mg/kg/injection, schedule: Q01DX009 (ip), vehicle: suspension in saline 109 % of control | dose: 400.0 mg/kg/injection, schedule: Q01DX009 (ip), vehicle: suspension in saline 110 % of control

C=C(C#N)C1OC2OC(C)(C)OC2C1OCCCCCCCC (centres undefined)
inactive: [16] 106 % of control | [17] 106 % of control

CCNC(=O)C12CCC(C)(C(=O)O1)C2(C)C (centres undefined)
inactive: dose: 60.0 mg/kg/injection, schedule: Q01DX005 (ip), vehicle: saline 93 % of control | dose: 120.0 mg/kg/injection, schedule: Q01DX005 (ip), vehicle: saline 98 % of control | dose: 240.0 mg/kg/injection, schedule: Q01DX005 (ip), vehicle: saline 101 % of control

CCOC(=S)/N=C1/SCS(=O)(=O)N1c1ccccc1
inactive: dose: 50.0 mg/kg/injection, schedule: Q04DX003 (ip), vehicle: saline with Tween-80 99 % of control | [13] 95 % of control | [15] 98 % of control

Cc1ccc(NC(=O)Oc2ccccc2F)c([N+](=O)[O-])c1
inactive: [6] 115 % of control | [12] 115 % of control | [14] 115 % of control

CP(=O)(OCCOCCOP(C)(=O)c1ccccc1)c1ccccc1 (centres undefined)
inactive: [18] 98 % of control | [19] 103 % of control | dose: 200.0 mg/kg/injection, schedule: Q01DX005 (ip), vehicle: Klucel (hydroxypropylcellulose) (HPC) 101 % of control

Cc1cccc(C2N=C3Oc4ccccc4C=C3C(=O)N2)c1 (centres undefined)
inactive: dose: 6.25 mg/kg/injection, schedule: Q01DX005 (ip), vehicle: Klucel (hydroxypropylcellulose) (HPC) 96 % of control | dose: 12.5 mg/kg/injection, schedule: Q01DX005 (ip), vehicle: Klucel (hydroxypropylcellulose) (HPC) 95 % of control | dose: 25.0 mg/kg/injection, schedule: Q01DX005 (ip), vehicle: Klucel (hydroxypropylcellulose) (HPC) 96 % of control | [18] 99 % of control | [19] 105 % of control

CC(O)c1cc2c(cc1I)OCO2 (centres undefined)
inactive: [11] 106 % of control | dose: 200.0 mg/kg/injection, schedule: Q01DX001 (ip), vehicle: Klucel (hydroxypropylcellulose) (HPC) 108 % of control | dose: 400.0 mg/kg/injection, schedule: Q01DX001 (ip), vehicle: Klucel (hydroxypropylcellulose) (HPC) 107 % of control

COC(=N)C(Cl)(Cl)Cl
inactive: [7] 97 % of control | dose: 100.0 mg/kg/injection, schedule: Q01DX009 (ip), vehicle: saline 100 % of control | dose: 200.0 mg/kg/injection, schedule: Q01DX009 (ip), vehicle: saline 95 % of control

Cc1cc(CSC(=N)N)c(C)cc1CSC(=N)N
inactive: dose: 5.0 mg/kg/injection, schedule: Q01DX009 (ip), vehicle: saline with Tween-80 100 % of control | dose: 10.0 mg/kg/injection, schedule: Q01DX009 (ip), vehicle: saline with Tween-80 109 % of control | dose: 10.0 mg/kg/injection, schedule: Q04DX003 (ip), vehicle: saline with Tween-80 108 % of control | dose: 20.0 mg/kg/injection, schedule: Q01DX009 (ip), vehicle: saline with Tween-80 109 % of control | dose: 20.0 mg/kg/injection, schedule: Q04DX003 (ip), vehicle: saline with Tween-80 104 % of control | dose: 40.0 mg/kg/injection, schedule: Q04DX003 (ip), vehicle: saline with Tween-80 116 % of control

Nc1nccc(Cl)n1
inactive: [1] 98 % of control | dose: 12.5 mg/kg/injection, schedule: Q01DX009 (ip), vehicle: saline with Tween-80 100 % of control | [4] 100 % of control | [6] 100 % of control

CN(C)CC(CN(C)C)C(=O)/C=C/c1ccc(O)cc1
inactive: dose: 1.56 mg/kg/injection, schedule: Q01DX005 (ip), vehicle: saline 105 % of control | dose: 3.12 mg/kg/injection, schedule: Q01DX005 (ip), vehicle: saline 114 % of control | dose: 6.25 mg/kg/injection, schedule: Q01DX005 (ip), vehicle: saline 114 % of control

CSc1ccc2ccccc2c1/C=[N+](/[O-])c1ccccc1
inactive: dose: 60.0 mg/kg/injection, schedule: Q01DX005 (ip), vehicle: Klucel (hydroxypropylcellulose) (HPC) 95 % of control | dose: 120.0 mg/kg/injection, schedule: Q01DX005 (ip), vehicle: Klucel (hydroxypropylcellulose) (HPC) 97 % of control | dose: 240.0 mg/kg/injection, schedule: Q01DX005 (ip), vehicle: Klucel (hydroxypropylcellulose) (HPC) 96 % of control

CCCCN(CCCC)CCOc1ccc(/C(CC)=C(/CC)c2ccc(OCCN(CCCC)CCCC)cc2)cc1
inactive: dose: 12.5 mg/kg/injection, schedule: Q01DX005 (ip), vehicle: saline 100 % of control | dose: 25.0 mg/kg/injection, schedule: Q01DX005 (ip), vehicle: saline 87 % of control | dose: 50.0 mg/kg/injection, schedule: Q01DX005 (ip), vehicle: saline 100 % of control and 102 % of control
